# Reference: ChEMBL document CHEMBL6177976, “Important Role of Triphenylamine in Modulating the Antibacterial Performance Relationships of Antimicrobial Peptide Mimics by Alkyl Chain Engineering” (J Med Chem, 2025)
# Activity calls are given as the source filed them. The calls are words filed in the database; no cut-off is given here.
# Key:
# Staphylococcus aureus [1] = test: Antibacterial activity against methicillin resistant Staphylococcus aureus assessed as bacterial viability up to 12 uM; format: functional, organism-based
# Staphylococcus aureus [2] = test: Antibacterial activity against methicillin resistant Staphylococcus aureus assessed as bacterial viability at 4 uM incubated for 90 mins relative to control; format: functional; conditions: 1.5 h
# Staphylococcus aureus [3] = test: Antibacterial activity against Staphylococcus aureus incubated for 90 mins; format: functional, organism-based; conditions: dose 10.0 µM
# Escherichia coli [4] = test: Antibacterial activity against Escherichia coli incubated for 90 mins; format: functional, organism-based
# Escherichia coli [5] = test: Antibacterial activity against Escherichia coli assessed as effect on bacterial growth incubated for 90 mins; format: functional, organism-based
# HeLa [6] = test: Cytotoxicity against human HeLa cells at 32 uM incubated for 24 hrs by Calcein AM assay; format: functional, cell-based
# HeLa [7] = test: Cytotoxicity against human HeLa cells at 32 uM measured after 60 mins by Calcein AM assay; format: functional, cell-based
# [8] = Hemolytic activity in sheep red blood cells assessed as hemolysis; format: toxicity, cell-based, Ovis aries, Erythrocyte
# HeLa [9] = test: Cytotoxicity against human HeLa cells assessed as dead cells at 32 uM measured after 24 hrs by PI staining based analysis; format: functional, cell-based
# Cell membrane [10] = test: Induction of cell membrane damage in Staphylococcus aureus assessed as decrease in fluorescence intensity at 128 uM measured for 40 mins propidium iodide staining based analysis; format: subcellular
# Cell membrane [11] = test: Induction of Inner membrane integrity in Staphylococcus aureus at 128 uM measured for 40 mins T12 dye based analysis; format: subcellular
# Cell membrane [12] = test: Induction of Inner membrane integrity in Staphylococcus aureus at 128 uM measured for 40 mins in presence of phosphatidylglycerol by T12 dye based analysis; format: subcellular
# Cell membrane [13] = test: Induction of Inner membrane integrity in Staphylococcus aureus at 128 uM measured for 40 mins in presence of cardiolipin by T12 dye based analysis
# Escherichia coli [14] = test: Antibacterial activity against Escherichia coli assessed as change in surface zeta potential at 16 uM incubated for 20 mins; format: functional, organism-based
# Staphylococcus aureus [15] = test: Antibacterial activity against methicillin resistant Staphylococcus aureus assessed as bacterial viability at 10 uM incubated for 90 mins relative to control; format: functional; conditions: 1.5 h
# HeLa [16] = test: Cytotoxicity against human HeLa cells at 32 uM incubated for 24 hrs by CCK-8 assay; format: functional, cell-based
# Cell membrane [17] = test: Induction of cell membrane damage in Staphylococcus aureus assessed as increase in fluorescence intensity at 128 uM measured for 40 mins propidium iodide staining based analysis
# Cell membrane [18] = test: Induction of cell membrane damage in Staphylococcus aureus at 20 uM incubated for 60 mins by SEM analysis; format: subcellular
# Cell membrane [19] = test: Induction of Inner membrane integrity in Staphylococcus aureus measured for 40 mins in presence of phosphatidylglycerol by T12 dye based analysis; format: subcellular; conditions: dose 128.0 µM
# Cell membrane [20] = test: Induction of Inner membrane integrity in Staphylococcus aureus measured for 40 mins in presence of cardiolipin by T12 dye based analysis; format: subcellular; conditions: dose 128.0 µM
# Cell membrane [21] = test: Induction of cytoplasmic membrane permeabilization in Staphylococcus aureus assessed as increase in fluorescence intensity at 16 uM incubated for […] by CLSM analysis
# Cell membrane [22] = test: Induction of cytoplasmic membrane permeabilization in Staphylococcus aureus assessed as increase in fluorescence intensity at 16 uM incubated for […] by SYTO 9 staining based analysis
# Staphylococcus aureus [23] = test: Antibacterial activity against Staphylococcus aureus assessed as change in surface zeta potential at 16 uM incubated for 20 mins; format: functional, organism-based
# RAW264.7 = test: Cytotoxicity against mouse RAW264.7 cells at 32 uM incubated for 24 hrs by CCK-8 assay; format: toxicity, cell-based; conditions: raw264.7, 24 h
# Cell membrane [24] = test: Induction of cell membrane damage in Staphylococcus aureus at 20 uM incubated for 60 mins by TEM analysis; format: subcellular
# Staphylococcus aureus [25] = test: Antibacterial activity against Staphylococcus aureus assessed as increase in fluorescence intensity incubated for 20 mins; format: functional, organism-based
# Staphylococcus aureus [26] = test: Induction of ROS accumulation in Staphylococcus aureus assessed as fold increase in fluorescence intensity at 1 uM by DCFH-DA staining based analysis; format: functional
# Staphylococcus aureus [27] = test: Induction of ROS accumulation in Staphylococcus aureus assessed as increase in singlet oxygen level by measuring reduction in ABDA absorption peak at 10 uM irradiated with 650 nm 50 mW/cm2 light for 5 mins; format: functional, organism-based
# Staphylococcus aureus [28] = test: Induction of ROS accumulation in Staphylococcus aureus assessed as increase in singlet oxygen level by measuring reduction in HPF absorption peak at 10 uM irradiated with 650 nm 50 mW/cm2 light for 5 mins; format: functional, organism-based
# Staphylococcus aureus [29] = test: Bactericidal activity against Staphylococcus aureus assessed as bacterial viability at 4 uM by plate counting method relative to control; format: functional
# Staphylococcus aureus [30] = test: Bactericidal activity against Staphylococcus aureus assessed as bacterial viability at 4 uM pretreated with compound for 60 mins followed by white light irradiation for 30 mins by plate counting method; format: functional; conditions: time 90 min, 1.5 h
# Staphylococcus aureus [31] = test: Bactericidal activity against methicillin-resistant Staphylococcus aureus assessed as bacterial viability at 4 uM pretreated with compound for 60 mins followed by white light irradiation for 30 mins by plate counting method; format: functional; conditions: time 90 min, 1.5 h
# Staphylococcus aureus [32] = test: Antibacterial activity against Staphylococcus aureus at 0.5 times MIC measured after 20 passages; format: functional, organism-based
# Staphylococcus aureus [33] = test: Drug resistance, ratio of MIC for Staphylococcus aureus after 20 passages to MIC for Staphylococcus aureus after initial exposure; format: functional
# Staphylococcus aureus [34] = test: Bactericidal activity against Staphylococcus aureus assessed as reduction in bacterial colony count measured at 2 hrs; format: functional, organism-based
# Staphylococcus aureus [35] = test: Antipersister-activity against Staphylococcus aureus assessed as reduction in bacterial colony count preincubated with 100 times of MIC of rifampicin for 24 hrs followed by compound addition and measured after 8 hrs by drop plate counting method; format: functional, organism-based
# Staphylococcus aureus [36] = test: Antibiofilm activity in Staphylococcus aureus assessed as inhibition of biofilm formation at 8 uM incubated for 48 hrs; format: functional, organism-based
# Staphylococcus aureus [37] = test: Antibiofilm activity in Staphylococcus aureus assessed as inhibition of biofilm formation at 32 uM incubated for 48 hrs in presence of white light irradiation; format: functional; conditions: light or radiation study
# Staphylococcus aureus [38] = test: Antibiofilm activity in Staphylococcus aureus assessed as inhibition of biofilm formation incubated for 48 hrs in presence of white light irradiation; format: functional, organism-based; conditions: dose <= 32.0 µM
# Staphylococcus aureus [39] = test: Antibiofilm activity in Staphylococcus aureus assessed as inhibition of biofilm formation incubated for 48 hrs in presence of white light irradiation by SYTO 9 staining based CLSM analysis; format: functional, organism-based
# Staphylococcus aureus [40] = test: Antibiofilm activity in Staphylococcus aureus assessed as inhibition of biofilm formation incubated for 48 hrs by SYTO 9 staining based CLSM analysis; format: functional, organism-based
# Staphylococcus aureus [41] = test: Antibacterial activity against methicillin resistant Staphylococcus aureus infected in Kunming mouse model of skin wound infection assessed as effect on wound healing rate at 5 mg/kg administered for 7 days; format: functional, organism-based; conditions: time 7.0 day
# Staphylococcus aureus [42] = test: Antibacterial activity against methicillin resistant Staphylococcus aureus infected in Kunming mouse model of skin wound infection assessed as effect on wound healing rate at 5 mg/kg administered for 7 days in presence of white light irradiation; format: functional, organism-based; conditions: time 7.0 day
compound,measurement,setting,value
CCCCCCCC[N+](C)(C)CCCOc1ccc(/C=C/c2ccc(N(c3ccccc3)c3ccccc3)cc2)cc1.[Br-],Activity,Staphylococcus aureus [1],Active
same,Activity,Staphylococcus aureus [2],28%
same,Activity,Staphylococcus aureus [3],Active
same,Activity,Escherichia coli [4],Active
same,Activity,Escherichia coli [5],inactive
same,Activity,HeLa [6],inactive
same,Activity,HeLa [7],inactive
same,HC50,[8],75 µM
same,Activity,HeLa [9],Active
same,Activity,Cell membrane [10],Active
same,Activity,Cell membrane [11],Active
same,Activity,Cell membrane [12],inactive
same,Activity,Cell membrane [13],inactive
same,Activity,Escherichia coli [14],Active
C[N+](C)(C)CCCOc1ccc(/C=C/c2ccccc2)cc1.[Br-],Activity,Staphylococcus aureus [1],Active
same,Activity,Staphylococcus aureus [15],60%
same,Activity,Staphylococcus aureus [3],Active
same,Activity,Escherichia coli [4],Active
same,Activity,HeLa [16],Active
same,Activity,Cell membrane [17],Active
same,Activity,Cell membrane [11],Active
same,Activity,Cell membrane [12],inactive
same,Activity,Cell membrane [13],inactive
CCCC[N+](C)(C)CCCOc1ccc(/C=C/c2ccc(N(c3ccccc3)c3ccccc3)cc2)cc1.[Br-],Activity,Staphylococcus aureus [1],Active
same,Activity,Staphylococcus aureus [2],2%
same,Activity,Staphylococcus aureus [3],Active
same,Activity,Escherichia coli [4],Active
same,Activity,Escherichia coli [5],inactive
same,Activity,HeLa [16],Active
same,Activity,Cell membrane [18],Active
same,Activity,Cell membrane [11],Active
same,Activity,Cell membrane [19],Dose-dependent-effect
same,Activity,Cell membrane [20],Dose-dependent-effect
same,Activity,Cell membrane [21],Active
same,Activity,Cell membrane [22],Active
same,Activity,Staphylococcus aureus [23],Active
same,Activity,Escherichia coli [14],Active
CCCCCCCC[N+](C)(C)CCCOc1ccc(/C=C/c2ccccc2)cc1.[Br-],Activity,Staphylococcus aureus [1],Active
same,Activity,Staphylococcus aureus [15],4%
same,Activity,Staphylococcus aureus [3],Active
same,Activity,Escherichia coli [4],Active
same,Activity,HeLa [6],inactive
same,Activity,HeLa [7],inactive
same,Activity,HeLa [9],Active
same,Activity,Cell membrane [18],Active
same,Activity,Cell membrane [17],Active
same,Activity,Cell membrane [11],Active
same,Activity,Cell membrane [19],Dose-dependent-effect
same,Activity,Cell membrane [20],Dose-dependent-effect
CCCCCCCCCC[N+](C)(C)CCCOc1ccc(/C=C/c2ccccc2)cc1.[Br-],Activity,Staphylococcus aureus [1],Active
same,Activity,Staphylococcus aureus [15],0.1%
same,Activity,Staphylococcus aureus [3],Active
same,Activity,Escherichia coli [4],Active
same,Activity,Cell membrane [18],Active
same,Activity,Cell membrane [17],Active
same,Activity,Cell membrane [11],Active
same,Activity,Cell membrane [19],Dose-dependent-effect
same,Activity,Cell membrane [20],Dose-dependent-effect
CCCC[N+](C)(C)CCCOc1ccc(/C=C/c2ccccc2)cc1.[Br-],Activity,Staphylococcus aureus [1],Active
same,Activity,Staphylococcus aureus [15],55%
same,Activity,Staphylococcus aureus [3],Active
same,Activity,Escherichia coli [4],Active
same,Activity,HeLa [16],Active
same,Activity,Cell membrane [17],Active
same,Activity,Cell membrane [11],Active
same,Activity,Cell membrane [12],inactive
same,Activity,Cell membrane [13],inactive
C[N+](C)(C)CCCOc1ccc(/C=C/c2ccc(N(c3ccccc3)c3ccccc3)cc2)cc1.[Br-],Activity,Staphylococcus aureus [1],Active
same,Activity,Staphylococcus aureus [2],3%
same,Activity,Staphylococcus aureus [3],Active
same,Activity,Escherichia coli [4],Active
same,Activity,Escherichia coli [5],inactive
same,Activity,HeLa [16],Active
same,Activity,RAW264.7,Non-toxic
same,HC50,[8],> 900 µM
same,Activity,Cell membrane [18],Active
same,Activity,Cell membrane [24],Active
same,Activity,Cell membrane [11],Active
same,Activity,Cell membrane [19],Dose-dependent-effect
same,Activity,Cell membrane [20],Dose-dependent-effect
same,Activity,Staphylococcus aureus [25],Active
same,Activity,Cell membrane [21],Active
same,Activity,Cell membrane [22],Active
same,Activity,Staphylococcus aureus [23],Active
same,Activity,Escherichia coli [14],Active
same,fold change (FC),Staphylococcus aureus [26],100
same,Activity,Staphylococcus aureus [27],inactive
same,Activity,Staphylococcus aureus [28],Active
same,Activity,Staphylococcus aureus [29],11%
same,Activity,Staphylococcus aureus [30],0.5%
same,Activity,Staphylococcus aureus [31],~100%
same,Activity,Staphylococcus aureus [32],Active
same,Ratio,Staphylococcus aureus [33],64
same,Activity,Staphylococcus aureus [34],Active
same,Activity,Staphylococcus aureus [35],Active
same,Activity,Staphylococcus aureus [36],Active
same,inhibition at 32 µM,Staphylococcus aureus [37],100%
same,Activity,Staphylococcus aureus [38],Dose-dependent-effect
same,Activity,Staphylococcus aureus [39],Active
same,Activity,Staphylococcus aureus [40],Active
same,Activity,Staphylococcus aureus [41],Active
same,Activity,Staphylococcus aureus [42],Active
CCCCCCCCCC[N+](C)(C)CCCOc1ccc(/C=C/c2ccc(N(c3ccccc3)c3ccccc3)cc2)cc1.[Br-],Activity,Staphylococcus aureus [1],Active
same,Activity,Staphylococcus aureus [2],52%
same,Activity,Staphylococcus aureus [3],Active
same,Activity,Escherichia coli [4],Active
same,Activity,Escherichia coli [5],inactive
same,Activity,Cell membrane [10],Active
same,Activity,Cell membrane [11],Active
same,Activity,Cell membrane [12],inactive
same,Activity,Cell membrane [13],inactive
same,Activity,Escherichia coli [14],Active
